Assay [1] deals with endothelial cells (HUVEC). The assay can be described thus: Binding of biotinylated ADOPep to endothelial cells by FACS. Also noted: species or system human. Here is the method:
FIG. 3 is a FACS analysis depicting the binding (in percentages) of biotinylated ADOPep1 (ADOPep1^Biot), an ADAM15 derived peptide (SEQ ID NO:2), to endothelial cells (EC) under normoxia. Biotinylated ADOPep1 at 0.05, 0.5 and 5 microgram/ml (μg/ml) were added to endothelial cells.
FIG. 4 is a FACS analysis depicting the binding (in total counts) of Biotinylated ADOPep1 to endothelial cells under normoxia and hypoxia conditions. […] X axis—Intensity of binding.
Human umbilical endothelial cells (HUVEC) were harvested by trypsin and 100,000 cells per sample were suspended in PBS+5% FCS+0.1% Na azide. Endothelial cells were either exposed for 5 hours to hypoxia or remained under normoxia conditions. Cells were stained for 2 hours on ice in dark with 0.05, 0.5, 5 μg/100,000 cells biotinylated ADOPeps. The cells were then washed twice with PBS, following which the cells were stained for 30 minutes with FITC-labeled Streptavidin (Jackson ImmunoResearch Laboratories, PA, USA). After washing, samples were analyzed using a fluorescence activated cell sorter (FACScan Beckton Dickinson, Calif., USA).
In general terms: A flow cytometer gives signals particle by particle.

Assay [2] deals with endothelial cells (HUVEC). Nature of the assay: Proliferation of endothelial cells under hypoxia ([H3]Thymidine incorporation). Format: cell-based, human. To be noted: 24 hours starvation, 10 ng/ml. Here is the method: FIG. 5 is a graph depicting cell proliferation as a function of ADOPeps' concentration. Proliferation of endothelial cells (EC) under hypoxia conditions was measured by [H^3]Thymidine incorporation. Endothelial cells (12,000/well) in minimal growth medium were incubated for 24 hours in the presence of 1, 10 and 100 ng/ml of ADOPep1 (SEQ ID NO:2; red diamonds), 2 (SEQ ID NO:3; blue squares) and 3 (SEQ ID NO:4; green triangles) peptides.
HUVEC from passage 3 were used for proliferation experiments. Endothelial cells (15,000 cells/well) were seeded on 24-wells in the presence of endothelial cell growth medium (Promocell, Heidelberg, Germany) with supplements and incubated for 24 hours. After then, cells were exposed to 24 hours starvation in a medium free of supplements. ADOPeps were added at concentrations of 1, 10 and 100 ng/ml for 24 hours under hypoxic conditions. 2 μCi/well of Thymidine (SIGMA, Rehovot Israel) were added or over night incubation followed by 3 washes with PBS before harvesting at 37° C. with 300 μl/well of 0.5 M NaOH. Cell lysates were transferred to scintillation vials with 2 ml scintillation liquid Ultima Gold (Packard Bioscience, Meriden, USA) and counted in a β counter. Results were obtained as counts per minute (cpm).
In general terms: Uptake of a labelled nucleoside into DNA is a usual measure of proliferation.

Assay [3] has as its system GRP78 receptor on endothelial cells. Nature of the assay: Competitive binding of ADOPeps to GRP78 (anti-GRP78 antibody ELISA on endothelial cells). Also noted: species or system human. To be noted: summary of 4 experiments. On the procedure: FIG. 19 is a graph depicting inhibition of binding (in percentages) of anti-GRP78 antibody to endothelial cells by increasing concentrations of ADOPep1, 2, and 3 peptides. Endothelial cells were incubated for 2 hours with increasing concentrations of ADOPeps, following which the cells were incubated for another 1 hour with the 2 μg/ml of anti-GRP78 antibody and the amount of bound antibody on EC was detected using an ELISA reader.
Endothelial cells (20,000 per well) were seeded in 96 well plates for 24 hours in the presence of the complete medium. Plates were washed with PBS over night and rehydrated with PBS, 0.1% Na Azide and 5% FCS. ADOPep1, ADOPep2 and ADOPep3 were added to washed plates for 2 hours at room temperature at concentrations of 0.01, 0.1 and 1 microgram per ml. Anti-GRP78 antibody (goat polyclona IgG, Santa Cruz Biotechnology, Calif., USA) was added to the plates for 1 hour at room temperature at a concentration of 2 micrograms/ml per well. After washing, bound anti-GRP78 antibody was detected by incubation with anti-goat IgG Peroxidase conjugated (Jackson Immuneresearch Laboratories, PA, USA). After 5 washes with PBS-0.1% Tween 20, 100 μl/well of TMB+ Substrate-Chromogen (DAKOCytomation, CA, USA) was added for a maximum of 30 minutes. Reaction was stopped with 1N HCl. Color developed was determined by an ELISA reader at 450 nm.

In assay [4] the test system is GRP78 in mouse ischemic hind limb. The assay can be described thus: GRP78-positive cells in ischemic hind limb sections. Format: in vivo. To be noted: 1 μg/mice, 7 to 14 days post ligation, vs PBS. On the procedure: FIG. 21 is a bar graph depicting the mean number of GRP78-positive (GRP78+) cells per area in hind limb ischemia treated with ADOPep1 as a function of the days post induction of ischemia. Mice were subjected to hind limb ligation (the ischemic model) and after one day the mice were injected with either 1 μg/mice of ADOPep1, or 50 μl of PBS as control. The number of GRP78 positive cells was determined in histological sections prepared from ligated hind limbs (injected with ADOPep1 or PBS) of mice sacrificed at 7, 14 or 21 days post ischemia induction or normal untreated (non-ischemic) hind limbs.

Another assay deals with mouse ischemic hind limb. Nature of the assay: Apoptotic cells in ischemic hind limb sections. Format: in vivo. To be noted: 1 μg/mice, 7 days post ligation, vs PBS. Here is the method: FIG. 22 is a bar graph depicting the number of apoptotic cells per field in ischemic hind limb treated with ADOPep1 as a function of days after ischemia induction. Mice were subjected to hind limb ligation and PBS or ADOpep1 injection as described in the description of FIG. 21, hereinabove, and the number of apoptotic cells per microscopical filed was determined in histological sections prepared from either ligated and ADopep or PBS treated hind limbs of mice sacrificed at 7, 14 or 21 days post ischemia induction or from normal non-ischemic hind limbs.

Another assay concerns endothelial cells. The assay can be described thus: Inhibition of binding of biotinylated ADOPep1 to endothelial cells by motif peptides. The arrangement: species or system human. Conditions: normoxia, peptides 0.01, 0.1 or 1 ng/ml, ADOPep1^Biot 2 μg/ml. Here is the method: FIG. 23 is a graph depicting the inhibition of binding of ADOPep1^Biot (2 μg/ml) to endothelial cells by specific peptides corresponding to conserved motifs from the ADOPeps. Endothelial cells were incubated for 2 hours under normoxia conditions in the presence of increasing concentrations (0.01, 0.1 or 1 ng/ml) of peptides having the amino acid sequences corresponding to Motif A (HWRRP; SEQ ID NO:7), Motif B (HWRRA; SEQ ID NO:8), Motif C (AHLLP; SEQ ID NO:6) or non-biotinylated ADOPep1 (SEQ ID NO:2) and then were incubated for 1 hour with biotinylated ADOPep1 (2 μg/ml) and the binding of biotinylated ADOPep1 to endothelial cells was determined using HRP-streptavidin.

From patent US8741843B2, “Compositions and methods for inducing angiogenesis” (priority 2006, dated 2014) come the findings set out here.

Entries after “also recorded” stand apart in the source; their conditions may differ.

With “HWRRAHLLPRLP [ADOPep1, ADAM15 derived peptide, amino acids 286-297 of the metalloprotease domain]”, the “binding to endothelial cells under hypoxia versus normoxia” value in assay [1] (5 micrograms per 100,000 cells) is reported as “increase in binding; also recorded: increased under hypoxia”. Besides, the “percent binding of biotinylated ADOPep1 to endothelial cells” value is listed as “about 85%” in assay [1] (hypoxia 5 hours, 5 μg/ml) and “about 62%” in assay [1] (normoxia, maximal at 5 μg/ml). The “proliferation of endothelial cells” value in assay [2] is “capable of inducing proliferation of EC”; in assay [2] (listed as ADOpep1) it was “induced proliferation of endothelial cells”. Also, in assay [3], the “inhibition of binding of anti-GRP78 antibody to EC (in words)” value was “some degree of inhibition”. The “mean number of GRP78 positive cells” value in assay [4] was “significantly increased”; in assay [4] (listed as Adopep1) it was “more significant increase in mean number of GRP78 positive cells”. Moreover, the results for the “number of apoptotic cells per field” value with mouse ischemic hind limb and in the assay with mouse ischemic hind limb (listed as ADoPep1) were “significant decrease” and “dramatically decreased”, respectively.
In the case of “HWRRP [Motif A, 5 amino acid motif peptide]”, the “inhibition of the binding of ADOPep1^Biot to endothelial cells” value in the assay with endothelial cells was “significant inhibition”.
